Patent publication US20250320205A1, “STAT6 DEGRADERS” (Gilead Sciences, Inc., priority 2024, published 2025)
pEC50: −log10 of the molar value.

Legend:
[1] = system: Eotaxin-3 (CCL26) release; test: Human Whole Blood Eotaxin-3 Assay (IL-4 stimulated); type: cell-based; settings: Homo sapiens; geometric mean across assay runs and compound batches; EC50 provided for test compounds with >80% Emax
Protocol: This was a human whole blood assay using recombinant human Interleukin 4 to stimulate the blood and measuring the ability of the test compounds to inhibit eotaxin-3 release. The biological activities of the test compounds have been tested in human whole blood stimulated with IL-4 measuring Eotaxin-3 release. The test compounds were added to 384 well clear flat-bottom plate in a 4-fold serial dilution in triplicates using a liquid handler. Human whole blood stabilized in lithium-heparin tubes was added in a volume of 65 μL per well, resulting in a final DMSO concentration of 0.5%. The plate is incubated for 2 h at 37° C. under 5% CO2/95% air. Subsequently, 5 μL of recombinant human IL-4 (R&D Systems, cat #204-ILB) was added to the wells to a final concentration of 400 pM. The plate was incubated for 48 h at 37° C. under 5% CO2/95% air. The plate was spun down for 10 minutes at 500×g and 20 μL supernatant was harvested and transferred to a 384 well v-bottom plate using a liquid handler and stored at −20° C. until further analysis. 10 μL supernatant was used to measure the level of Eotaxin-3 (CCL26) using Human Eotaxin-3 MSD kit from Mesocsale (Cat #K251UEK-4). The assay was performed according to the manufacture instructions.

STAT6 = molecular target: T1, STAT6 (Homo sapiens, UniProt P42226); test: STAT6 Degrader Assay (HiBiT based, HeLa LgBiT clone 4.14 cells); type: cell-based; settings: for DC50: geometric mean across assay runs and compound batches, DC50 provided for test compounds with >80% Emax, read-out: STAT6 degradation DC50
T1 construct: These cells express endogenous STAT6; host or cells: HeLa LgBiT clone 4.14 (CRISPR knock-in of HiBiT into the endogenous STAT6 gene)
T1 sequence (P42226 1-847): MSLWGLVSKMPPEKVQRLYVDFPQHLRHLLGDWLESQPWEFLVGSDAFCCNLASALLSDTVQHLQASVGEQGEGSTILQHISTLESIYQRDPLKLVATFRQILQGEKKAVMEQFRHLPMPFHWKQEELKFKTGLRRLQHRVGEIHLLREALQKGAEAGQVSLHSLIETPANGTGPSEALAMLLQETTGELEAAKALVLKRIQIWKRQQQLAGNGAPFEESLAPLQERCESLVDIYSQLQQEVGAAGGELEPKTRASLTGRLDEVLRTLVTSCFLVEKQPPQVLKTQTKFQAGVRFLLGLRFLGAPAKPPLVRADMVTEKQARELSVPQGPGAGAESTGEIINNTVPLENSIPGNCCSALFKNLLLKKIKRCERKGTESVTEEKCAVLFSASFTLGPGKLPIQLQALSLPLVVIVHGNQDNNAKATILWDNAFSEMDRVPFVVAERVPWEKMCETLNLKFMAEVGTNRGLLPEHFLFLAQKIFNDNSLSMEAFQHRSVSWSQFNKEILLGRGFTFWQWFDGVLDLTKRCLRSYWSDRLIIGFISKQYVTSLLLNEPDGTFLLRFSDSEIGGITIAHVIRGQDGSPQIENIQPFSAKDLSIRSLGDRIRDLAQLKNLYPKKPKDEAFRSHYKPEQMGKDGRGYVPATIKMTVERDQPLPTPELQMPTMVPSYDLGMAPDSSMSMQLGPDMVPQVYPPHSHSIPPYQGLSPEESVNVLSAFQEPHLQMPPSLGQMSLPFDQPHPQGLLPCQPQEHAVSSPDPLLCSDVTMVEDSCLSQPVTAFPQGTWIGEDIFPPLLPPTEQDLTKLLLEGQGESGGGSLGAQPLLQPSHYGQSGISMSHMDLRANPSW
Method in brief: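 DC50 (nM) comes from NanoBiT luminescence of HiBiT-knock-in STAT6 in HeLa LgBiT clone 4.14 cells, treated 4-24 h at 37° C. Luminescence reflects non-degraded STAT6, with 50 μM terfenadine wells taken as full degradation.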

pEC50 [1] | DC50 (STAT6) [nM] | Emax (STAT6; HeLa, maximal STAT6 degradation) [%] | SMILES
9.70 | 0.1 |  | CNc1ccn(-c2ccnc3c2cc([C@H](C)N2CC=C(c4c(C)cc(C(=O)N5CCn6nc(CN7CCC(c8cc(OC)c(NC9CCC(=O)NC9=O)cc8F)CC7)cc6C5)cc4F)CC2)n3C)c(=O)c1 (stereo partly drawn) [Example 2g128, 3-((5-fluoro-4-(1-((5-(3-fluoro-5-methyl-4-(1-((S)-1-(1-methyl-4-(4-(methyl-amino)-2-oxopyridin-1(2H)-yl)-1H-pyrrolo[2,3-b]pyridin-2-yl)ethyl)-1,2,3,6-tetrahydro-pyridin-4-yl)benzoyl)-4,5,6,7-tetrahydropyrazolo[1,5-a]pyr-azin-2-yl)methyl)piperidin-4-yl)-2-methoxyphenyl)amino)-piperidine-2,6-dione]
8.96 | 0.1 |  | CNc1ccn(-c2ccnc3c2cc([C@H](C)N2CC=C(c4c(C)cc(C(=O)N5CCn6nc(CN7CCC(c8ccc(N[C@@H]9CCC(=O)NC9=O)c(OC)c8)CC7)cc6C5)cc4F)CC2)n3C)c(=O)c1 (single isomer, unassigned) [Example 2g118]
7.32 | 14 |  | CNc1cc(=O)n(-c2ccnc3c2cc([C@H](C)N2CC=C(c4c(F)cc(C(=O)N5CCC(CN6CCN(c7ccc(NC8CCC(=O)NC8=O)cc7F)CC6)CC5)cc4F)CC2)n3C)cc1F (stereo partly drawn) [Example 2g119, 3-((4-(4-((1-(3,5-difluoro-4-(1-((S)-1-(4-(5-fluoro-4-(methylamino)-2-oxopyridin-1(2H)-yl)-1-methyl-1H-pyr-rolo[2,3-b]pyridin-2-yl)ethyl)-1,2,3,6-tetrahydropyridin-4-yl)benzoyl)piperidin-4-yl)-methyl)piperazin-1-yl)-3-fluorophenyl)amino)piperi-dine-2,6-dione]
7.86 | 3.5 |  | CNc1ccn(-c2ccnc3c2cc([C@H](C)N2CC=C(c4c(C)cc(C(=O)N5CCC(CN6CCN(c7ncc(NC8CCC(=O)NC8=O)cc7F)C[C@H]6C)CC5)cc4F)CC2)n3C)c(=O)c1 (stereo partly drawn) [Example 2g113, 3-((5-fluoro-6-((R)-4-((1-(3-fluoro-5-methyl-4-(1-((S)-1-(1-methyl-4-(4-(methyl-amino)-2-oxopyridin-1(2H)-yl)-1H-pyrrolo[2,3-b]pyridin-2-yl)ethyl)-1,2,3,6-tetrahydro-pyridin-4-yl)benzoyl)piperi-din-4-yl)methyl)-3-methyl-piperazin-1-yl)pyridin-3-yl)-amino)piperidine-2,6-dione]
8.26 | 3.1 |  | Cc1cc(C(=O)N2CCC(CN3CCN(c4ccc(NC5CCC(=O)NC5=O)cc4F)CC3)CC2)cc(F)c1C1=CCN([C@@H](C)c2cc3c(-n4ccc5c(c4=O)CCN5)ccnc3n2C)CC1 (stereo partly drawn) [Example 2g18, 3-((3-fluoro-4-(4-((1-(3-fluoro-5-methyl-4-(1-((S)-1-(1-methyl-4-(4-oxo-1,2,3,4-tetrahydro-5H-pyrrolo[3,2-c]pyridin-5-yl)-1H-pyrrolo[2,3-b]pyridin-2-yl)ethyl)-1,2,3,6-tetrahydropyridin-4-yl)benzo-yl)piperidin-4-yl)methyl)-piperazin-1-yl)phenyl)amino)-piperidine-2,6-dione]
10.00 | 0.2 |  | CNc1ccn(-c2ccnc3c2cc([C@H](C)N2CC=C(c4c(C)cc(C(=O)N5CCn6nc(CN7CCC(c8ccc(NC9CCC(=O)NC9=O)cc8F)CC7)cc6C5)cc4F)CC2)n3C)c(=O)c1 (stereo partly drawn) [Example 2g15, 3-((3-fluoro-4-(1-((5-(3-fluoro-5-methyl-4-(1-((S)-1-(1-methyl-4-(4-(methyl-amino)-2-oxopyridin-1(2H)-yl)-1H-pyrrolo[2,3-b]pyridin-2-yl)ethyl)-1,2,3,6-tetrahydro-pyridin-4-yl)benzoyl)-4,5,6,7-tetrahydropyrazolo[1,5-a]pyr-azin-2-yl)methyl)piperidin-4-yl)phenyl)amino)piperidine-2,6-dione]

Further lines, the compound ahead of its results:

SMILES | pEC50 [1] | DC50 (STAT6) [nM] | Emax (STAT6; HeLa, maximal STAT6 degradation) [%]
CNc1cc(=O)n(-c2ccnc3c2cc([C@H](C)N2CC=C(c4c(C)cc(C(=O)N5CCn6nc(CN7CCC(c8ccc(N[C@@H]9CCC(=O)NC9=O)c(OC)c8)CC7)cc6C5)cc4F)CC2)n3C)cc1F (single isomer, unassigned) [Example 2g12] | 9.30 | 0.7 | 
CNc1cc(=O)n(-c2ccnc3c2cc([C@H](C)N2CC=C(c4c(C)cc(C(=O)N5CCn6nc(CN7CCC(c8ccc(N[C@@H]9CCC(=O)NC9=O)cc8F)CC7)cc6C5)cc4F)CC2)n3C)cc1F (single isomer, unassigned) [Example 2g5] | 8.57 | 0.5 | 
CNc1cc(=O)n(-c2ccnc3c2cc(CN2CCC(c4c(F)cc(C(=O)N5CCn6nc(CN7CCC(c8ccc(N[C@@H]9CCC(=O)NC9=O)c(OC)c8)CC7)cc6C5)cc4F)CC2)n3C)cc1F (single isomer, unassigned) [Example 2g124] | 8.24 | 2.5 | 
CNc1ccn(-c2ccnc3c2cc([C@H](C)N2CCC(c4ccc(C(=O)N5CCC(CN6CCN(c7ccc(NC8CCC(=O)NC8=O)cc7F)CC6)CC5)cc4)CC2)n3C)c(=O)c1 (stereo partly drawn) [Example 2c31, 3-((3-fluoro-4-(4-((1-(4-(1-((S)-1-(1-methyl-4-(4-(meth-ylamino)-2-oxopyridin-1(2H)-yl)-1H-pyrrolo[2,3-b]pyridin-2-yl)ethyl)piperidin-4-yl)-benzoyl)piperidin-4-yl)meth-yl)piperzin-1-yl)phenyl)-amino)-piperidine-2,6-dione] | 7.65 |  | 70 to 80
CNc1cc(=O)n(-c2ccnc3c2cc([C@H](C)N2CC=C(c4c(C)cc(C(=O)N5CCn6nc(CN7CCC(c8ccc(N[C@H]9CCC(=O)NC9=O)cc8F)CC7)cc6C5)cc4F)CC2)n3C)cc1F (single isomer, unassigned) [Example 2g6] | 8.82 | 0.3 | 
CNc1ccn(-c2ccnc3c2cc(CN2CCC(c4c(F)cc(C(=O)N5CCC(CN6CCN(c7ccc(NC8CCC(=O)NC8=O)cc7F)CC6)CC5)cc4F)CC2)n3C)c(=O)c1 (stereo not shown) [Example 2g107, 3-((4-(4-((1-(3,5-difluoro-4-(1-((1-methyl-4-(4-(methyl-amino)-2-oxopyridin-1(2H)-yl)-1H-pyrrolo[2,3-b]pyridin-2-yl)methyl)piperidin-4-yl)-benzoyl)piperidin-4-yl)meth-yl)piperazin-1-yl)-3-fluoro-phenyl)amino)piperidine-2,6-dione] | 7.57 | 25.3 | 
CNc1ccn(-c2ccnc3c2cc([C@H](C)N2CCC(c4c(F)cc(C(=O)N5CCn6nc(CN7CCC(c8ccc(NC9CCC(=O)NC9=O)cc8F)CC7)cc6C5)cc4F)CC2)n3C)c(=O)c1 (stereo partly drawn) [Example 2g109, 3-((4-(1-((5-(3,5-difluoro-4-(1-((S)-1-(1-methyl-4-(4-(methylamino)-2-oxopyridin-1(2H)-yl)-1H-pyrrolo[2,3-b]pyridin-2-yl)ethyl)piperidin-4-yl)benzoyl)-4,5,6,7-tetra-hydropyrazolo[1,5-a]pyrazin-2-yl)methyl)piperidin-4-yl)-3-fluorophenyl)amino)piperi-dine-2,6-dione] | 9.52 | 0.4 | 
CNc1cc(=O)n(-c2ccnc3c2cc(CN2CCC(c4c(F)cc(C(=O)N5CCn6nc(CN7CCC(c8ccc(N[C@H]9CCC(=O)NC9=O)c(OC)c8)CC7)cc6C5)cc4F)CC2)n3C)cc1F (single isomer, unassigned) [Example 2g123] | 8.59 | 1.8 | 
